In the supplement of paper PMC10307832 one finds relative viability data, which are given here for 8 cell lines.

Common to all, as to experiment: relative viability (nuclei count vs DMSO), 5 days (fraction); higher = more cells survive
Compound in experiment [1]: C1=CC(=CC=C1C2=CC(=C(S2)NC(=O)N)C(=O)N)F [TPCA-1] + C[C@]1(O)C[C@@H](c2nc(-c3ccc4ccc(-c5ccccc5)nc4c3)c3c(N)nccn32)C1 [Linsitinib] (partner 1 µM)
The gist of the method: (§1)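 Lung cancer cell lines were pin-tool dosed in 1536-well plates on the day after seeding, with either a lone drug or a fixed anchor-drug dose plus five library-drug doses (not always all listed) in √10 steps. Nuclei were counted on 4× images after 5 days. Relative viability is the ratio of treated-well to vehicle-well nuclei counts, with each value a median of duplicate plates.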

Compound in experiment [2]: C[C@]12O[C@H](C[C@]1(O)CO)n1c3ccccc3c3c4c(c5c6ccccc6n2c5c31)CNC4=O [Lestaurtinib] + N=C(N)NC(=N)NCCc1ccccc1 [Phenformin] (partner 250 µM)
In a few lines: as §1

Compound in experiment [3]: C1/C(=C\C2=CC=CS2)/C(=O)/C(=C/C3=CC=CS3)/C1 + Cc1cc(Nc2cc(N3CCN(C)CC3)nc(Sc3ccc(NC(=O)C4CC4)cc3)n2)n[nH]1 [Tozasertib] (partner 0.1 µM)
The gist of the method: as §1

Compound in experiment [4]: C1/C(=C\C2=CC=CS2)/C(=O)/C(=C/C3=CC=CS3)/C1 + O=C(CCCCCCC(=O)Nc1ccccc1)NO [Vorinostat] (partner 1 µM)
In a few lines: as §1

As for HCC-78, the relative viability was 0.555 in experiment [1] (first compound 0.04 µM); 0.429 in experiment [1] (first compound 0.1265 µM); 0.506 in experiment [1] (first compound 0.4 µM); 0.413 in experiment [1] (first compound 1.265 µM); 0.399 in experiment [1] (first compound 4 µM); 0.658 in experiment [2] (first compound 0.005 µM). In addition, the relative viability was found to be 0.816 in experiment [2] (first compound 0.01581 µM); 0.556 in experiment [2] (first compound 0.05 µM); 0.425 in experiment [2] (first compound 0.1581 µM); 0.406 in experiment [2] (first compound 0.5 µM); 0.423 in experiment [3] (first compound 0.2 µM); 0.593 in experiment [3] (first compound 0.6325 µM). Besides, the relative viability in experiment [3] (first compound 2 µM) stood at 0.45; in experiment [3] (first compound 6.325 µM), 0.37; in experiment [3] (first compound 20 µM), 0.454; in experiment [4] (first compound 0.2 µM) it was 0.51; in experiment [4] (first compound 0.6325 µM) it was 0.401; in experiment [4] (first compound 2 µM), 0.441. Further, the results for the relative viability in experiment [4] (first compound 6.325 µM) and in experiment [4] (first compound 20 µM) were 0.425 and 0.385, respectively.

For the cell line HCC-366, the relative viability is 0.72 in experiment [1] (first compound 0.04 µM); 0.568 in experiment [1] (first compound 0.1265 µM); 0.807 in experiment [1] (first compound 0.4 µM); 0.458 in experiment [1] (first compound 1.265 µM); 0.427 in experiment [1] (first compound 4 µM); 0.618 in experiment [2] (first compound 0.005 µM). Further, the relative viability in experiment [2] (first compound 0.01581 µM) was 0.642; in experiment [2] (first compound 0.05 µM), 0.656; in experiment [2] (first compound 0.1581 µM), 0.603; in experiment [2] (first compound 0.5 µM), 0.48; in experiment [3] (first compound 0.2 µM) it was 0.105; in experiment [3] (first compound 0.6325 µM) it was 0.0974. The relative viability came to 0.101 in experiment [3] (first compound 2 µM); 0.0969 in experiment [3] (first compound 6.325 µM); 0.0897 in experiment [3] (first compound 20 µM); 0.41 in experiment [4] (first compound 0.2 µM); 0.381 in experiment [4] (first compound 0.6325 µM); 0.373 in experiment [4] (first compound 2 µM). The relative viability worked out at 0.324 in experiment [4] (first compound 6.325 µM) and 0.425 in experiment [4] (first compound 20 µM).

With HCC-827, the relative viability in experiment [1] (first compound 0.04 µM) amounted to 0.934; in experiment [1] (first compound 0.1265 µM) it was 0.889; in experiment [1] (first compound 0.4 µM), 0.935; in experiment [1] (first compound 1.265 µM) it was 0.932; in experiment [1] (first compound 4 µM), 0.806; in experiment [2] (first compound 0.005 µM), 0.359. The relative viability was 0.44 in experiment [2] (first compound 0.01581 µM); 0.36 in experiment [2] (first compound 0.05 µM); 0.316 in experiment [2] (first compound 0.1581 µM); 0.265 in experiment [2] (first compound 0.5 µM); 0.414 in experiment [3] (first compound 0.2 µM); 0.405 in experiment [3] (first compound 0.6325 µM). Also, the relative viability in experiment [3] (first compound 2 µM) is 0.441; in experiment [3] (first compound 6.325 µM), 0.44; in experiment [3] (first compound 20 µM), 0.503; in experiment [4] (first compound 0.2 µM) it was 0.999; in experiment [4] (first compound 0.6325 µM), 0.897; in experiment [4] (first compound 2 µM) it was 0.908. The relative viability in experiment [4] (first compound 6.325 µM) is 0.764; in experiment [4] (first compound 20 µM), 0.822.

For HOP-62, the relative viability in experiment [1] (first compound 0.04 µM) was 0.96; in experiment [1] (first compound 0.1265 µM), 0.676; in experiment [1] (first compound 0.4 µM), 0.921; in experiment [1] (first compound 1.265 µM) it was 1.12; in experiment [1] (first compound 4 µM), 0.973; in experiment [2] (first compound 0.005 µM), 0.637. For the same cell line, the relative viability in experiment [2] (first compound 0.01581 µM) is 0.768; in experiment [2] (first compound 0.05 µM) it was 0.485; in experiment [2] (first compound 0.1581 µM), 0.613; in experiment [2] (first compound 0.5 µM) it was 0.274; in experiment [3] (first compound 0.2 µM), 0.368; in experiment [3] (first compound 0.6325 µM), 0.39. Besides, the relative viability is 0.348 in experiment [3] (first compound 2 µM); 0.302 in experiment [3] (first compound 6.325 µM); 0.39 in experiment [3] (first compound 20 µM); 0.733 in experiment [4] (first compound 0.2 µM); 0.681 in experiment [4] (first compound 0.6325 µM); 0.646 in experiment [4] (first compound 2 µM). Also, the values for the relative viability in experiment [4] (first compound 6.325 µM) and in experiment [4] (first compound 20 µM) were 0.51 and 0.68, respectively.

For IA-LM, the relative viability is 0.75 in experiment [1] (first compound 0.04 µM); 0.411 in experiment [1] (first compound 0.1265 µM); 0.47 in experiment [1] (first compound 0.4 µM); 0.259 in experiment [1] (first compound 1.265 µM); 0.378 in experiment [1] (first compound 4 µM); 0.959 in experiment [4] (first compound 0.2 µM). For the same cell line, the relative viability in experiment [4] (first compound 0.6325 µM) came to 1.09; in experiment [4] (first compound 2 µM), 1.01; in experiment [4] (first compound 6.325 µM), 0.885; in experiment [4] (first compound 20 µM) it was 0.852.

On to LC-2-ad, for which the relative viability in experiment [1] (first compound 0.04 µM) came to 0.92; in experiment [1] (first compound 0.1265 µM) it was 0.71; in experiment [1] (first compound 0.4 µM) it was 0.833; in experiment [1] (first compound 1.265 µM) it was 0.807; in experiment [1] (first compound 4 µM) it was 0.331; in experiment [2] (first compound 0.005 µM) it was 0.554. The relative viability in experiment [2] (first compound 0.01581 µM) is 0.772; in experiment [2] (first compound 0.05 µM), 0.561; in experiment [2] (first compound 0.1581 µM) it was 0.385; in experiment [2] (first compound 0.5 µM) it was 0.26; in experiment [3] (first compound 0.2 µM), 0.452; in experiment [3] (first compound 0.6325 µM) it was 0.461. The relative viability in experiment [3] (first compound 2 µM) stood at 0.448; in experiment [3] (first compound 6.325 µM), 0.429; in experiment [3] (first compound 20 µM), 0.429; in experiment [4] (first compound 0.2 µM), 0.696; in experiment [4] (first compound 0.6325 µM) it was 0.745; in experiment [4] (first compound 2 µM), 0.711. Further, the relative viability in experiment [4] (first compound 6.325 µM) worked out at 0.647; in experiment [4] (first compound 20 µM), 0.64.

As for LCLC-97TM1, the relative viability in experiment [1] (first compound 0.04 µM) turned out to be 0.206; in experiment [1] (first compound 0.1265 µM), 0.188; in experiment [1] (first compound 0.4 µM), 0.166; in experiment [1] (first compound 1.265 µM), 0.15; in experiment [1] (first compound 4 µM), 0.159; in experiment [2] (first compound 0.005 µM), 0.47. For the same cell line, the relative viability in experiment [2] (first compound 0.01581 µM) was found to be 0.442; in experiment [2] (first compound 0.05 µM) it was 0.403; in experiment [2] (first compound 0.1581 µM), 0.325; in experiment [2] (first compound 0.5 µM), 0.2; in experiment [3] (first compound 0.2 µM), 0.239; in experiment [3] (first compound 0.6325 µM) it was 0.233. Also, the relative viability in experiment [3] (first compound 2 µM) was 0.227; in experiment [3] (first compound 6.325 µM), 0.213; in experiment [3] (first compound 20 µM) it was 0.195; in experiment [4] (first compound 0.2 µM) it was 0.845; in experiment [4] (first compound 0.6325 µM) it was 0.818; in experiment [4] (first compound 2 µM), 0.757. In addition, the results for the relative viability in experiment [4] (first compound 6.325 µM) and in experiment [4] (first compound 20 µM) were 0.631 and 0.66, respectively.

In the case of LCLC-103H, the relative viability in experiment [1] (first compound 0.04 µM) amounted to 1.24; in experiment [1] (first compound 0.1265 µM), 0.99; in experiment [1] (first compound 0.4 µM) it was 1.08; in experiment [1] (first compound 1.265 µM), 1.12; in experiment [1] (first compound 4 µM), 1.07; in experiment [2] (first compound 0.005 µM), 0.336. In addition, the relative viability in experiment [2] (first compound 0.01581 µM) stood at 0.379; in experiment [2] (first compound 0.05 µM), 0.327; in experiment [2] (first compound 0.1581 µM), 0.288; in experiment [2] (first compound 0.5 µM), 0.234; in experiment [3] (first compound 0.2 µM) it was 0.485; in experiment [3] (first compound 0.6325 µM), 0.47. The relative viability in experiment [3] (first compound 2 µM) was 0.517; in experiment [3] (first compound 6.325 µM) it was 0.465; in experiment [3] (first compound 20 µM) it was 0.451; in experiment [4] (first compound 0.2 µM), 0.805; in experiment [4] (first compound 0.6325 µM), 0.842; in experiment [4] (first compound 2 µM), 0.859. In addition, the values for the relative viability in experiment [4] (first compound 6.325 µM) and in experiment [4] (first compound 20 µM) were 0.698 and 0.765, respectively.
